Like-named read-outs stand apart in the source and are kept apart here.
Key:
Assay type in all cases: in vivo
[1] = system: Thrips tabaci (Onion Thrips); assay: Thrips tabaci sunflower leaf disc spray test; settings: foliar, 144 h, application rate 200 ppm, mixed ages on sunflower leaf discs, 6 days after infestation
Experimental: Thrips tabaci (Onion Thrips):
(§1) Sunflower leaf discs were placed on agar in 24-well microtiter plates and sprayed with aqueous test solutions prepared from 10,000 ppm DMSO stock solutions. After drying the leaf discs were infested with a thrips population of mixed ages. The samples were assessed for mortality 6 days after infestation.

[2] = system: Spodoptera littoralis (Egyptian Cotton Leaf Worm); assay: Spodoptera littoralis cotton leaf disc spray test, L1 larvae; settings: foliar, 72 h
Experimental: Spodoptera littoralis (Egyptian Cotton Leaf Worm)
Cotton leaf discs were placed on agar in 24-well microtiter plates and sprayed with aqueous test solutions prepared from 10,000 ppm DMSO stock solutions. After drying the leaf discs were infested with five L1 larvae. The samples were assessed for mortality 3 days after infestation.

[3] = system: Tetranychus urticae (Two-Spotted Spider Mite); assay: Tetranychus urticae bean leaf disc spray test; settings: foliar, 192 h, application rate 200 ppm, mixed population (mobile stages) on bean leaf discs, 8 days after infestation
Experimental: Tetranychus urticae (Two-Spotted Spider Mite):
as §1, with “Bean” for “Sunflower”, “discs” for “discs were placed”, “were” for “and”, “mite” for “thrips”, “on mixed population (mobile stages) 8” for “6”

[4] = system: Plutella xylostella (Diamond Back Moth); assay: Plutella xylostella L2 larvae on treated artificial diet; settings: 120 h
Experimental: 24-well microtiter plates with artificial diet were treated with aqueous test solutions prepared from 10,000 ppm DMSO stock solutions by pipetting. After drying, the plates were infested with L2 larvae (10 to 15 per well). The samples were assessed for mortality 5 days after infestation.

[5] = system: Myzus persicae (Green Peach Aphid); assay: Myzus persicae sucrose solution feeding test through Parafilm; settings: 120 h, test rate 12 ppm, 5 days after infestation
Experimental: Myzus persicae (Green Peach Aphid)
Test compounds from 10,000 ppm DMSO stock solutions were applied by pipette into 24-well microtiter plates and mixed with sucrose solution. The plates were closed with a stretched Parafilm. A plastic stencil with 24 holes was placed onto the plate and infested pea seedlings were placed directly on the Parafilm. The infested plate was closed with a gel blotting paper and another plastic stencil and then turned upside down. The samples were assessed for mortality 5 days after infestation.

[6] = system: Heliothis virescens (Tobacco Budworm); assay: Heliothis virescens eggs on artificial diet; settings: 120 h, read-out: egg or larval mortality
Experimental: Heliothis virescens (Tobacco Budworm):
Eggs (0-24 h old) were placed in 24-well microtiter plates on artificial diet and treated with aqueous test solutions prepared from 10,000 ppm DMSO stock solutions by pipetting. The samples were assessed for egg and larval mortality 5 days after infestation.

[7] = system: Diabrotica balteata (Corn Root Worm); assay: Diabrotica balteata L2 larvae on treated artificial diet; settings: 120 h, application rate 200 ppm, 5 days after infestation
Experimental: (§2) 24-well microtiter plates with artificial diet were treated with aqueous test solutions prepared from 10,000 ppm DMSO stock solutions by pipetting. After drying, the plates were infested with L2 larvae (6 to 10 per well). The samples were assessed for mortality 5 days after infestation.

[8] = system: Diabrotica balteata, (Corn Root Worm); assay: Diabrotica balteata L2 larvae on sprayed maize sprouts; settings: 96 h, application rate 200 ppm, 4 days after infestation
Experimental: as §2, with “Maize sprouts, placed on an agar layer in 24-well” for “24-well”, “plates” for “plates with artificial diet”, “spraying.” for “pipetting.”, “4” for “5”

[9] = application rate 200 ppm, eggs on artificial diet, 5 days after infestation

CC(=O)NCSc1ccc(C2=NOC(c3cc(Cl)cc(Cl)c3)(C(F)(F)F)C2)cc1Br (stereo not shown) [Compound A1, N-[[2-bromo-4-[5-(3,5-dichlorophenyl)-5-(trifluoromethyl)-4H-isoxazol-3-yl]phenyl]sulfanylmethyl]acetamide]
≥ 80%: mortality at 200 ppm [1] | mortality at 200 ppm [2] | mortality at 200 ppm [3] | mortality at 200 ppm [4] | mortality at 12 ppm [5] | mortality at 200 ppm [6] | mortality at 200 ppm [7]

O=C(NCSc1ccc(C2=NOC(c3cc(Cl)cc(Cl)c3)(C(F)(F)F)C2)cc1Br)c1ccccc1 (stereo not shown) [Compound A2, N-[[2-bromo-4-[5-(3,5-dichlorophenyl)-5-(trifluoromethyl)-4H-isoxazol-3-yl]phenyl]sulfanylmethyl]benzamide]
≥ 80%: mortality at 200 ppm [4] | mortality at 200 ppm [6]

O=C(NCSc1ccc(C2=NOC(c3cc(Cl)cc(Cl)c3)(C(F)(F)F)C2)cc1Br)C1CC1 (stereo not shown) [Compound A3, N-[[2-bromo-4-[5-(3,5-dichlorophenyl)-5-(trifluoromethyl)-4H-isoxazol-3-yl]phenyl]sulfanylmethyl]cyclopropanecarboxamide]
≥ 80%: mortality at 200 ppm [1] | mortality at 200 ppm [2] | mortality at 200 ppm [3] | mortality at 200 ppm [4] | mortality at 12 ppm [5] | mortality at 200 ppm [6] | mortality at 200 ppm [7]

CC1(C(=O)NCSc2ccc(C3=NOC(c4cc(Cl)cc(Cl)c4)(C(F)(F)F)C3)cc2Br)CC1 (stereo not shown) [Compound A4, N-[[2-bromo-4-[5-(3,5-dichlorophenyl)-5-(trifluoromethyl)-4H-isoxazol-3-yl]phenyl]sulfanylmethyl]-1-methyl-cyclopropanecarboxamide]
≥ 80%: mortality at 200 ppm [6]

CC(=O)NCSc1ccc(C2=CSC(c3cc(Cl)cc(Cl)c3)(C(F)(F)F)C2)cc1Br (stereo not shown) [Compound C1, N-[[2-bromo-4-[2-(3,5-dichlorophenyl)-2-(trifluoromethyl)-3H-thiophen-4-yl]phenyl]sulfanylmethyl]acetamide]
≥ 80%: mortality at 200 ppm ([2]; application rate 200 ppm, L1 larvae on cotton leaf discs, 3 days after infestation, read-out: mortality) | mortality at 200 ppm ([4]; application rate 200 ppm, L2 larvae on artificial diet, 5 days after infestation, read-out: mortality) | mortality at 200 ppm [8] | mortality at 200 ppm [6, 9]

CC(C)C(=O)NCSc1ccc(C2=CSC(c3cc(Cl)cc(Cl)c3)(C(F)(F)F)C2)cc1Br (stereo not shown) [Compound C2, N-[[2-bromo-4-[2-(3,5-dichlorophenyl)-2-(trifluoromethyl)-3H-thiophen-4-yl]phenyl]sulfanylmethyl]-2-methyl-propanamide]
≥ 80%: mortality at 200 ppm [6, 9]

— patent US9675073B2, “Insecticidal compounds based on N-arylsulfanylmethylcarboxamidearylthiosulfonamides derivatives” (Syngenta Participations AG, priority 2012, dated 2017)
